Patent publication US9000002B2, “N1-substituted-5-fluoro-2-oxopyrimidinone-1(2H)-carboxamide derivatives” (Dow Agrosciences LLC, priority 2009, dated 2015)
Like-named read-outs stand apart in the source and are kept apart here.

What was measured:
[1] = tested on: Mycosphaerella graminicola; Anamorph: Septoria tritici; Bayer Code SEPTTR; assay: Evaluation of fungicidal activity: leaf blotch of wheat (SEPTTR), wheat plants variety Yuma; type: in vivo; details: Zymoseptoria tritici
Description: Evaluation of Fungicidal Activity: Leaf Blotch of Wheat (Mycosphaerella graminicola; Anamorph: Septoria tritici; Bayer Code […]) Wheat plants (variety Yuma) were grown from seed in a greenhouse in 50% mineral soil/50% soil-less Metro mix until the first leaf was fully emerged, with 7-10 seedlings per pot. These plants were inoculated with an aqueous spore suspension of Septoria tritici either prior to or after fungicide treatments. After inoculation the plants were kept in 100% relative humidity (one day in a dark dew chamber followed by two to three days in a lighted dew chamber) to permit spores to germinate and infect the leaf. The plants were then transferred to a greenhouse for disease to develop. The following table presents the activity of typical compounds of the present disclosure when evaluated in these experiments. The effectiveness of the test compounds in controlling disease was determined by assessing the severity of disease on treated plants, then converting the severity to percent control based on the level of disease on untreated, inoculated plants. • In each case of Table II the rating scale is as follows: […]

[2] = 24 h, One-Day Protectant (1DP), 100 ppm, wheat plants, percent control vs untreated inoculated plants, read-out: SEPTTR 100 PPM 1DP (% Disease Control rating)
[3] = 72 h, Three-Day Curative (3DC), 100 ppm, wheat plants, percent control vs untreated inoculated plants, read-out: SEPTTR 100 PPM 3DC (% Disease Control rating)

| melting point [°C] | Structure (SMILES) | pest or weed control at 100 ppm [1, 2] [%] | pest or weed control at 100 ppm [1, 3] [%] | pest or weed control at 100 ppm ([1]; 24 h, read-out: SEPTTR 100 PPM 1DP (% Disease Control rating)) [%] | pest or weed control at 100 ppm ([1]; 72 h, read-out: SEPTTR 100 PPM 3DC (% Disease Control rating)) [%] |
| --- | --- | --- | --- | --- | --- |
| 282 to 284 | Nc1nc(=O)n(C(=O)Nc2ccc3sccc3c2)cc1F [Compound 19] | 76 to 100 | 76 to 100 | – | – |
| 263 to 265 | Nc1nc(=O)n(C(=O)Nc2ccsc2)cc1F [Compound 20] | 76 to 100 | 76 to 100 | – | – |
| 260 to 262 | Nc1nc(=O)n(C(=O)NCc2ccccc2F)cc1F [Compound 22] | 76 to 100 | 76 to 100 | – | – |
| 291 to 294 | CC(C)NC(=O)n1cc(F)c(N)nc1=O [Compound 24] | 76 to 100 | 76 to 100 | – | – |
| 220 to 224 | CCOC(=O)CNC(=O)n1cc(F)c(N)nc1=O [Compound 25] | 76 to 100 | 76 to 100 | – | – |
| 237 to 239 | CSCCNC(=O)n1cc(F)c(N)nc1=O [Compound 26] | 76 to 100 | 76 to 100 | – | – |
| 158 to 162 | Cc1ccc(NC(=O)n2cc(F)c(NCc3ccccc3F)nc2=O)cc1 [Compound 30] | 0 to 25 | 26 to 50 | – | – |
| 158 to 160 | O=C(Nc1cccc(Cl)c1)n1cc(F)c(NCc2ccccc2F)nc1=O [Compound 31] | 0 to 25 | 0 to 25 | – | – |
| 192 to 196 | CN(C(=S)n1cc(F)c(N)nc1=O)c1ccccc1 [Compound 34, 4-amino-5-fluoro-N-methyl-2-oxo-N-phenylpyrimidine-1(2H)-carbothioamide] | 76 to 100 | 76 to 100 | – | – |
| 126 to 131 | CN(C(=S)n1cc(F)c(N)nc1=O)c1cccc(C(F)(F)F)c1 [Compound 35] | 76 to 100 | 76 to 100 | – | – |
| 223 to 226 | CCN(C(=S)n1cc(F)c(N)nc1=O)c1ccccc1 [Compound 37] | 76 to 100 | 76 to 100 | – | – |
| 233 to 235 | CCNC(=O)n1cc(F)c(NC(C)=O)nc1=O [Compound 38, 4-acetamido-N-ethyl-5-fluoro-2-oxopyrimidine-1(2H)-carboxamide] | 76 to 100 | 76 to 100 | – | – |
| 258 to 260 | CCCNC(=O)n1cc(F)c(NC(=O)c2ccccc2)nc1=O [Compound 40] | 76 to 100 | 76 to 100 | – | – |
| 249 to 251 | CCNC(=O)n1cc(F)c(NC(=O)c2ccccc2)nc1=O [Compound 44] | 76 to 100 | 76 to 100 | – | – |
| 226 to 228 | CCNC(=O)n1cc(F)c(NC(=O)C(C)C)nc1=O [Compound 45] | 76 to 100 | 76 to 100 | – | – |
| 239 to 241 | CCNC(=O)n1cc(F)c(NC(=O)c2ccccc2Cl)nc1=O [Compound 46] | 76 to 100 | 51 to 75 | – | – |
| 210 to 212 | O=C(Nc1nc(=O)n(C(=O)NCc2ccc(Cl)cc2)cc1F)c1ccccc1 [Compound 48] | 76 to 100 | 76 to 100 | – | – |
| 248 to 250 | CCNC(=O)n1cc(F)c(NC(=O)NCc2ccccc2OC)nc1=O [Compound 49, N-ethyl-5-fluoro-4-(3-(2-methoxybenzyl)ureido)-2-oxopyrimidine-1(2H)-carboxamide] | 0 to 25 | 0 to 25 | – | – |
| 251 to 253 | COc1ccccc1CNC(=O)Nc1nc(=O)n(C(=O)NC(C)C)cc1F [Compound 50] | 0 to 25 | 0 to 25 | – | – |
| 248 to 250 | CCCNC(=O)n1cc(F)c(NC(=O)NCc2ccccc2OC)nc1=O [Compound 51] | 0 to 25 | 0 to 25 | – | – |
| 229 to 231 | COc1ccccc1CNC(=O)Nc1nc(=O)n(C(=O)NCc2ccccc2F)cc1F [Compound 53] | 0 to 25 | 0 to 25 | – | – |

Second part, the molecule before the results:

| Structure (SMILES) | melting point [°C] | pest or weed control at 100 ppm [1, 2] [%] | pest or weed control at 100 ppm [1, 3] [%] | pest or weed control at 100 ppm ([1]; 24 h, read-out: SEPTTR 100 PPM 1DP (% Disease Control rating)) [%] | pest or weed control at 100 ppm ([1]; 72 h, read-out: SEPTTR 100 PPM 3DC (% Disease Control rating)) [%] |
| --- | --- | --- | --- | --- | --- |
| Nc1nc(=O)n(C(=O)Nc2ccc(F)cc2)cc1F [Compound 21] | 257 to 259 | 76 to 100 | 76 to 100 | – | – |
| CCCNC(=O)n1cc(F)c(N)nc1=O [Compound 23] | 290 to 293 | 76 to 100 | 76 to 100 | – | – |
| COCCCNC(=O)n1cc(F)c(N)nc1=O [Compound 27] | 295 to 298 | 76 to 100 | 76 to 100 | – | – |
| O=C(Nc1ccccc1)n1cc(F)c(NCc2ccccc2F)nc1=O [Compound 28, 5-fluoro-4-(2-fluorobenzylamino)-2-oxo-N-phenylpyrimidine-1(2H)-carboxamide] | 154 to 157 | – | – | 0 to 25 | 26 to 50 |
| O=C(Nc1ccc(F)cc1F)n1cc(F)c(NCc2ccccc2F)nc1=O [Compound 29] | 150 to 153 | 0 to 25 | 26 to 50 | – | – |
| CCCNC(=O)n1cc(F)c(NCc2ccccc2F)nc1=O [Compound 32] | 113 to 116 | 26 to 50 | 51 to 75 | – | – |
| CCN(CC)C(=S)n1cc(F)c(/N=C/N(C)C)nc1=O [Compound 33, (E)-4-((dimethylamino)methyleneamino)-N,N-diethyl-5-fluoro-2-oxopyrimidine-1(2H)-carbothioamide] | 118 to 123 | 0 to 25 | 26 to 50 | – | – |
| CN(C(=S)n1cc(F)c(N)nc1=O)c1cc(Cl)cc(Cl)c1 [Compound 36] | 200 to 203 | 76 to 100 | 76 to 100 | – | – |
| CCCNC(=O)n1cc(F)c(NC(C)=O)nc1=O [Compound 39] | 233 to 235 | 76 to 100 | 76 to 100 | – | – |
| CCCNC(=O)n1cc(F)c(NC(=O)C(C)C)nc1=O [Compound 41] | 226 to 228 | 76 to 100 | 76 to 100 | – | – |
| CCCNC(=O)n1cc(F)c(NC(=O)c2ccccc2Cl)nc1=O [Compound 42] | 239 to 241 | 26 to 50 | 76 to 100 | – | – |
| CCCNC(=O)n1cc(F)c(NC(=O)Cc2ccc(OC)cc2)nc1=O [Compound 43] | 227 to 229 | 76 to 100 | 76 to 100 | – | – |
| CC(=O)Nc1nc(=O)n(C(=O)NCc2ccc(Cl)cc2)cc1F [Compound 47] | 170 to 172 | 76 to 100 | 76 to 100 | – | – |
| CCCCCNC(=O)n1cc(F)c(NC(=O)NCc2ccccc2OC)nc1=O [Compound 52] | 248 to 250 | 0 to 25 | 0 to 25 | – | – |
